In US20070105162A1, “Monovalent avidin and streptavidin compositions” (Massachusetts Institute of Technology, priority 2005, published 2007):

Columns and labels:
[1] = tested on: biotinylated AP-CFP-TM on HeLa cells; assay: Staining of biotinylated AP-CFP-TM on HeLa with Alexa Fluor 568-conjugated streptavidins; format: cell-based; conditions: Alexa Fluor 568 conjugate 10 μg/mL, 10 min at 4° C.
Procedure: Enzymatic biotinylation and imaging of HeLa transfectants were performed as previously described (Howarth, M. et al., Proc. Natl. Acad. Sci. USA 102: 7583-7588, 2005), except instead of 10 μM biotin and 1 mM ATP, we added 10 μM biotin-AMP (synthesized according to Coleman and Huang; Coleman, T. M. and Huang, F. Chem. Biol. 9: 1227-1236, 2002) to give equivalent biotinylation but minimizing the risk of purinoreceptor activation by ATP (Rathbone, M. P. et al., Prog. Neurobiol. 59: 663-690, 1999). […] Biotinylation of neurons was performed at day in vitro (DIV) 8 in Hanks' Balanced Salt Solution (HBSS) (Invitrogen) with 0.2 μM biotin ligase and 10 μM biotin-AMP for 5 min at 37° C. […] Neurons were washed with NeuroBasal media (Invitrogen) supplemented with B-27 (Invitrogen), 50 U/mL penicillin, 50 μg/mL streptomycin, and 0.2 mM L-glutamine and chased in the same medium for 0 or 2 hr at 37° C. Cells were then fixed in −20° C. methanol. […]
Images of HeLa cells were collected on a Zeiss Axiovert 200M inverted epifluorescence microscope using a 40× oil-immersion lens and a MicroMAX CCD camera (Roper Scientific; Tucson, Ariz.). CFP (420DF20 excitation, 450DRLP dichroic, 475DF40 emission) and Alexa568 (560DF20 excitation, 585DRLP dichroic, 605DF30 emission) images were collected and analyzed using OpenLab software (Improvision; Lexington, Mass.). Fluorescence images were background-corrected. […] Images were scaled to 16 bits and analyzed in Northern Eclipse (Empix Imaging; Ontario, Canada) with user-written software. […] Results were then calculated in terms of clusters per micrometer of dendrite. For assessment of pre-synaptic terminals, clusters were determined as before and average grey levels of clusters were compared between transfected dendrites and untransfected dendrites within the same field of view. […] “n” represents the number of transfected neurons for which clusters were measured. […]

[2] = Off-rate of 3H-biotin from streptavidin (cold biotin chase); format: binding; conditions: 50 μM cold biotin chase, 5 hours at 37° C., ± s.e.m.
Procedure: (Green, N. M. Methods in Enzymol. 184: 51-67, 1990). Dissociation was then initiated by addition of cold biotin at a final concentration of 50 μM and time-points taken over 5 hours at 37° C. 50 μL aliquots were removed and added to 200 μL 0.2M ZnSO4 chilled on ice, followed by 200 μL 0.2 M NaOH. The protein precipitate was pelleted by centrifugation at 16,500 g for 5 min, and ^3H-biotin in the supernatant was measured by liquid scintillation counting. Data were plotted as ln(fraction bound) versus time, and fit to a straight line by linear regression. Dissociation rates were deduced from the slope of the line and the equation: ln(fraction bound)=−koff(t) where fraction bound=(total ^3H-biotin−free ^3H-biotin at timepoint)/(total ^3H-biotin−free ^3H-biotin before cold biotin chase).

[3] = tested on: biotinylated AP-neuroligin-1 on hippocampal neurons; assay: AP-neuroligin-1 clustering in hippocampal neurons labeled with streptavidin; format: cell-based, rat; conditions: two hour incubation at 37° C., Alexa Fluor 568 conjugate; ± s.e.m., n=9
Procedure: HeLa cells were grown in Dulbecco's Modified Eagle Medium (DMEM) with 10% Fetal Calf Serum, 50 U/mL penicillin and 50 μg/mL streptomycin. HeLa stably expressing AP-CFP-TM or Ala-CFP-TM have been previously described (Howarth, M. et al., Proc. Natl. Acad. Sci. USA 102: 7583-7588, 2005). Dissociated primary neuronal cultures were prepared from Embryonic Day 18 or 19 (E18/19) rats and transfected with Lipofectamine 2000 at DIV6 as in Levinson et al. (Levinson, J. N. et al., J. Biol. Chem. 280: 17312-17319, 2005). […]
Images of HeLa cells were collected on a Zeiss Axiovert 200M inverted epifluorescence microscope using a 40× oil-immersion lens and a MicroMAX CCD camera (Roper Scientific; Tucson, Ariz.). CFP (420DF20 excitation, 450DRLP dichroic, 475DF40 emission) and Alexa568 (560DF20 excitation, 585DRLP dichroic, 605DF30 emission) images were collected and analyzed using OpenLab software (Improvision; Lexington, Mass.). Fluorescence images were background-corrected. […] Images were scaled to 16 bits and analyzed in Northern Eclipse (Empix Imaging; Ontario, Canada) with user-written software. […] Results were then calculated in terms of clusters per micrometer of dendrite. For assessment of pre-synaptic terminals, clusters were determined as before and average grey levels of clusters were compared between transfected dendrites and untransfected dendrites within the same field of view. […]

[4] = Electrospray ionization mass spectrometry: biotin molecules bound per streptavidin tetramer; format: binding
Procedure: Biospin columns (Bio-Rad) were equilibrated by spinning 5 times in 500 μL of 15 mM ammonium acetate pH 7.8 at 1000 g for 2 min. Then 30-50 μL of 30 μM protein in PBS was buffer-exchanged into 15 mM ammonium acetate pH 7.8 using the pre-equilibrated Biospin columns by spinning for 20 s at 1000 g. To ensure that PBS was completely removed, the flow-through was again buffer-exchanged with a second pre-equilibrated column for 20 s. This procedure also removed free biotin when the starting 30 μM streptavidin forms were incubated with 200 μM biotin. Less than 2 min before introducing into the mass spectrometer, the buffer-exchanged samples were diluted with a solution of 1:1 15 mM ammonium acetate pH 7.8 and 78% acetonitrile, 0.01% trifluoroacetic acid.
(§1) An Advion nanospray robot (Advion BioSystems, Ithica, N.Y.) with a back-pressure of 0.45 Psi introduced the samples into the mass spectrometer, an 8.5 Tesla custom-built Electrospray Ionisation-Fourier Transform Mass Spectrometer. To visualize the non-covalent tetramers and non-covalent biotin binding in the high m/z range, the following settings were used: Chirp rate=750 Hz, Amplitude=0.5 V p-p, Tube lens=200 V, Capillary heater 2 V, Quad filter=−20 V, Skimmer=0 V, Capillary offset=34 V, X-fer=−110 V, Leak gas=4.2×10^−5 Torr. The capillary heater was kept low and the Quad filter and Skimmer were kept either high or off to prevent subunit dissociation. The transfer was set to this low value of −110 V in order to visualize the high m/z region.
The masses were calculated manually by first determining the charge state. The final mass was determined by multiplying the observed m/z by the charge and subtracting the mass corresponding to the addition of protons to give that charge. For example, for the 15+charge state of D4 an m/z of 3534.159 was obtained. (15×3534.159)-(15×1.00727) gave a mass for this ion of 52,997 Da. This calculation was repeated for each charge state and the mean and standard deviation reported. The spectra were calibrated with tetrameric streptavidin, after its monomer mass was determined under denaturing conditions (Mr=13,271.4 Da). Average masses were predicted from the DNA sequence, using the ExPASy PeptideMass Calculator (ca.expasy.org/tools/peptide-mass.html) and assuming removal of the N-terminal formyl-Methionine.
The different tetramers were purified using a Ni-nitrilotriacetic acid (NTA) column, eluting according to the number of His6-tags with increasing concentrations of imidazole. […] The tetramer composition was further confirmed by boiling the samples before loading on SDS-PAGE, to determine the ratio of A to D subunits (FIG. 1D), and by electrospray ionization mass spectrometry. In Table 1 (Schwartz, B. L. et al., J. of the Amer. Soc. for Mass Spec. 6: 459-465, 1995) the observed mass (±s.d.), determined by Electrospray Ionization-Mass Spectrometry, is compared to the mass predicted from the sequence. From the change (±s.e.m.) upon addition of biotin (mass 244.31), we determined how many biotin molecules were bound to each tetramer.
Electrospray ionization mass spectrometry was used to characterize the number of biotin molecules bound per tetramer. Spectra of the different streptavidin tetramers with or without biotin were acquired. […] The other chimeric tetramers bound one biotin per A subunit.

[5] = Electrospray ionization mass spectrometry: biotin molecules bound per avidin tetramer; format: binding; conditions: spectra with or without biotin
Procedure: Biospin columns (Bio-Rad) are equilibrated by spinning 5 times in 500 μL of 15 mM ammonium acetate pH 7.8 at 1000 g for 2 min. Then 30-50 μL of 30 μM protein in PBS is buffer-exchanged into 15 mM ammonium acetate pH 7.8 using the pre-equilibrated Biospin columns by spinning for 20 s at 1000 g. To ensure that PBS is completely removed, the flow-through is again buffer-exchanged with a second pre-equilibrated column for 20 s. This procedure also removes free biotin when the starting 30 μM avidin forms are incubated with 200 μM biotin. Less than 2 min before introducing into the mass spectrometer, the buffer-exchanged samples are diluted with a solution of 1:1 15 mM ammonium acetate pH 7.8 and 78% acetonitrile, 0.01% trifluoroacetic acid.
as §1, with “introduces” for “introduced”, “are” for “were”, “is” for “was”
The masses are calculated manually by first determining the charge state. The final mass is determined by multiplying the observed m/z by the charge and subtracting the mass corresponding to the addition of protons to give that charge. This calculation is repeated for each charge state and the mean and standard deviation reported. The spectra are calibrated with tetrameric avidin, after its monomer mass is determined under denaturing conditions. […]

Substance	Alexa staining of biotinylated AP-CFP-TM [1]	off-rate from biotin [2]	AP-neuroligin-1 clusters per micrometer of dendrite [3] [clusters/μm]	# biotins (bound to each tetramer) ([4]; from mass change upon addition of biotin, 30 μM protein, 200 μM biotin)	biotin binding per tetramer by mass spectrometry (in words) ([4]; spectra with or without biotin)	biotin binding per avidin tetramer by mass spectrometry (in words) [5]
wild-type streptavidin: Wild-type core streptavidin tetramer with 4 biotin binding sites (SEQ ID NO:2) [reference compound]	detected equally well	5.17±0.25×10^−5 s^−1	0.266±0.011	–	–	–
A4: Wild-type streptavidin with a His6-tag, four Alive subunits (SEQ ID NO:4) [Tetramer A4]	–	–	–	4	all four subunits	all four subunits
